Assays:
adult males = test system: adult males; set-up: method as in Drotman [1980]; details: ref Drotman [1980], cited from earlier work; for Amounts in the blood / Radioactivity recovered after 144 h in urine, feces, and air: human males, 50 mg capsule; for Excreted within the first 24 h: radiolabeled, human male volunteers
[1] = test system: female Colworth Wistar rats; set-up: method as in Unilever [1978]; details: 14C-labelled, oral, rat, ref Unilever [1978], cited from earlier work
[2] = Metabolic stability in cryopreserved hepatocytes (disappearance, half-life, CLint); details: Syrian, hamster, pooled cryopreserved hepatocytes, pH 7.4
Experimental: (§2) The metabolic stability assay was performed in a 48-well plate format (duplicate with cells and single without cells).
(§3) The hepatocytes were thawed and re-suspended in Celsis InVitro KHB medium (pH 7.4). […] The samples were collected and stored at − 20 °C for further analysis.
(§4) The UPLC-Q-Exactive Orbitrap MS system consisted of a Thermo Vanquish Horizon UHPLC with an autosampler, vacuum degasser, photodiode array (PDA) detector (210–500 nm), and column oven coupled to a Q-Exactive Orbitrap Focus mass spectrometer (Thermo Fisher Scientific, Waltham, MA, USA). The analytical column used was a Waters Acquity BEH C8 2.1 × 50 mm with 1.7 particle size (Waters Corp, Milford, MA, USA). The temperature of the column oven was 40 °C, and the injection volume was 4 μl. The aqueous eluent (A) was 0.1% formic acid (B) was acetonitrile. […] The eluent flow rate was 0.5 ml/min and the flow was directed to the MS through a PDA detector. The data acquisition was performed using positive Electrospray Ionization (ESI+) polarity with a capillary voltage of 3000 V. Capillary temperature was 320 °C and auxiliary gas temperature was 500 °C. The mass spectrometer was operated in the data-dependent MS2 mode, which acquires full-scan MS and MS/MS fragment ion data in the same run. Scan was performed with a resolution of 35,000 (full width at half maximum at m/z 200), while an Automated Gain Control target of a million ions, maximum injection time of 100 ms, and a scan range of 100–1000 m/z were used. […] Nitrogen was used as a sheath gas with 50 units, auxiliary gas with 10 units and as a sweep gas with 5 units. Ion chromatograms were extracted from the total ion chromatograms using calculated monoisotopic accurate masses with 5 mDa window. Calibration curves were generated using an external standard. The data were processed with Thermo Xcalibur 4.1.31.9 software.
(§5) The first-order rate constants k (min^−1) of the metabolism were obtained from the slope of time versus ln (% remaining) plots using Excel software. All time points (log-scale) were used in fitting the rate constant k based on visual inspection of the curves.
(§6) The in vitro half-life (t1/2) of the test compound(s) is defined as: t1/2=ln2/k
(§7) CLint,inc = k*V/(M), where V is the volume of the incubation and M is the number of cells or amount of S9 protein in the incubation.

hamster hepatocytes [3] = assay: as above; details: hamster hepatocytes, range over 1 and 10 µM
Experimental: as §2, §3, §4, §5, §6, §7

[4] = as above; details: Sprague Dawley, rat, pooled cryopreserved hepatocytes, pH 7.4
Experimental: as §2, §3, §4, §5, §6, §7

rat hepatocytes = assay: Metabolite profiling by LC-MS in hepatocytes; details: for Number of metabolites detected: rat hepatocytes
Experimental: as §3
(§8) The in vitro metabolism of the five individual homologue AEs (i.e. C8EO4, C10EO5, C12EO4, C16EO8, and C18EO3) was analyzed by liquid chromatography–mass spectrometry (LC–MS). The UPLC-Q-Exactive Orbitrap MS system consisted of a Thermo Vanquish Horizon UHPLC with an autosampler, vacuum degasser, photodiode array (PDA) detector (210–500 nm), and column oven coupled to a Q-Exactive Orbitrap Focus mass spectrometer (Thermo Fisher Scientific, Waltham, MA, USA). The analytical column used was a Waters Acquity BEH C8 2.1 × 50 mm with 1.7 particle size (Waters Corp, Milford, MA, USA). The temperature of the column oven was 40 °C, and the injection volume was 4 μl. The aqueous eluent (A) was 0.1% formic acid (B) was acetonitrile. […] The eluent flow rate was 0.5 ml/min and the flow was directed to the MS through a PDA detector. The data acquisition was performed using positive Electrospray Ionization (ESI+) polarity with a capillary voltage of 3000 V. Capillary temperature was 320 °C and auxiliary gas temperature was 500 °C. The mass spectrometer was operated in the data-dependent MS2 mode, which acquires full-scan MS and MS/MS fragment ion data in the same run. Scan was performed with a resolution of 35,000 (full width at half maximum at m/z 200), while an Automated Gain Control target of a million ions, maximum injection time of 100 ms, and a scan range of 100–1000 m/z were used. […] Nitrogen was used as a sheath gas with 50 units, auxiliary gas with 10 units and as a sweep gas with 5 units. Ion chromatograms were extracted from the total ion chromatograms using calculated monoisotopic accurate masses with 5 mDa window. Calibration curves were generated using an external standard. The data were processed with Thermo Xcalibur 4.1.31.9 software.

[5] = Metabolite profiling by LC-MS in liver S9
Text: (§1) Calibration curves were generated using an external standard.

human hepatocytes [6] = assay: Metabolite profiling by LC-MS in hepatocytes; details: for Number of metabolites detected: human hepatocytes
Experimental: as §3, §8

human hepatocytes [7] = assay: Metabolic stability in cryopreserved hepatocytes (disappearance, half-life, CLint); details: human hepatocytes, range over 1 and 10 µM
Experimental: as §2, §3, §4, §5, §6, §7

[8] = as above; details: human, pooled cryopreserved hepatocytes, pH 7.4
Experimental: as §2, §3, §4, §5, §6, §7

[9] = Metabolite profiling by LC-MS in buffer (incubation without cells); details: metabolite profile of C16EO8, 10 µM incubation, 120 min, buffer without cells
Experimental: as §3, §8

[10] = Metabolic stability in liver S9 fraction (disappearance, half-life, CLint); details: human
Experimental: The metabolic stability assay was performed in a 48-well plate format (duplicate with cofactors and single without cofactors).
Each incubation contained test compound (final concentration of 1 or 10 µM), liver S9 (1.5 mg/ml protein content), Cofactors (1 mM NADPH + 1 mM UDPGA + 0.2 mM PAPS), MgCl2 (2 mM), and potassium phosphate buffer (100 mM at pH 7.4). […] The incubation was carried out at 37 °C for 60 min with and without cofactors. […] The samples were collected and stored at − 20 °C for further analysis.
as §8, §5, §6, §7

hamster hepatocytes [11] = assay: Metabolite profiling by LC-MS in hepatocytes; details: for Number of metabolites detected: hamster hepatocytes
Experimental: as §3, §8

[12] = Metabolic stability in liver S9 fraction (disappearance, half-life, CLint)
Experimental: as §1
Intrinsic in vitro clearance was calculated as follows: […]

[13] = metabolite profile of C16EO8, 10 µM incubation, 120 min
[14] = metabolite profile of C16EO8, 10 µM incubation, 60 min, with cofactors
[15] = metabolite profile of C16EO8, 10 µM incubation, 60 min, without cofactors
[16] = pooled liver S9, pH 7.4, Half-lives t1/2, Liver S9, 1 μM
[17] = Sprague-Dawley, rat, pooled liver S9, pH 7.4
[18] = Syrian, hamster, pooled liver S9, pH 7.4
[19] = metabolite profile of C18EO3, 10 µM incubation, 120 min
[20] = metabolite profile of C18EO3, 10 µM incubation, 60 min
[21] = Sprague-Dawley, rat, s9, pH 7.4

Structure (SMILES): CCCCCCCCCCCCOCCOCCOCCOCCOCCOCCO [C12EO6]
- Amounts in the blood (adult males): ≤ 1%
- Radioactivity recovered after 144 h in urine, feces, and air (adult males): 83–89%
- Excreted within the first 24 h (adult males): 75%
- Total recovery in urine, feces, air, and carcass of the administered compound ([1]; 4 days): ~100%
- 14C in air [1]: about 10%

Structure (SMILES): CCCCCCCCCCCCCOCCOCCOCCOCCOCCOCCO [C13EO6]
- Amounts in the blood (adult males): ≤ 1%
- Radioactivity recovered after 144 h in urine, feces, and air (adult males): 83–89%
- Excreted within the first 24 h (adult males): 75%

Structure (SMILES): CCCCCCCCCCCCCCCCOCCOCCOCCOCCOCCOCCOCCOCCO [C16EO8]
- half-life at 1 µM [2]: 27 min
- half-life at 10 µM [2]: 30 min
- Initial concentration remaining after 120 min incubation (hamster hepatocytes [3]): 4–5%
- half-life at 1 µM [4]: 6.6 min
- half-life at 10 µM [4]: 9.2 min
- Hepatocytes, % Rat (percentage of the total peak area) (rat hepatocytes; [13]): 1.0%
- Number of metabolites detected (rat hepatocytes): 32
- Number of metabolites detected ([5]; hamster liver S9): 33
- Number of metabolites detected ([5]; human liver S9): 33
- Liver S9 with cofactors, % Hamster (percentage of the total peak area) [5, 14]: 82.7%
- Liver S9 with cofactors, % Human (percentage of the total peak area) [5, 14]: 72.0%
- Liver S9 with cofactors, % Rat (percentage of the total peak area) [5, 14]: 85.8%
- Liver S9 without cofactors, % Hamster (percentage of the total peak area) [5, 15]: 97.4%
- Liver S9 without cofactors, % Human (percentage of the total peak area) [5, 15]: 96.6%
- Liver S9 without cofactors, % Rat (percentage of the total peak area) [5, 15]: 98.7%
- Number of metabolites detected ([5]; rat liver S9): 33
- Number of metabolites detected (human hepatocytes [6]): 32
- Hepatocytes, % Human (percentage of the total peak area) (human hepatocytes [6]; [13]): 30.3%
- Initial concentration remaining after 120 min incubation (human hepatocytes [7]): 11–36%
- half-life at 1 µM [8]: 39 min
- half-life at 10 µM [8]: 85 min
- Hepatocytes, % Buffer (percentage of the total peak area) [9]: 29.7%
- microsomal CLint at 1 µM ([10]; pooled liver S9, pH 7.4): 3.33 µL/min/mg
- half-life at 1 µM [10, 16]: 139 min
- Number of metabolites detected (hamster hepatocytes [11]): 32
- Hepatocytes, % Hamster (percentage of the total peak area) (hamster hepatocytes [11]; [13]): 10.6%
- half-life at 1 µM [12, 17]: 16 min
- microsomal CLint at 1 µM [12, 17]: 29.6 µL/min/mg
- half-life at 1 µM [12, 18]: 118 min
- microsomal CLint at 1 µM [12, 18]: 3.92 µL/min/mg

Structure (SMILES): CCCCCCCCCCCCCCCCCCOCCOCCOCCO [C18EO3]
- Percentage of the total peak area, Hepatocytes, Rat (rat hepatocytes; [19]): 98.3%
- Number of metabolites detected (rat hepatocytes): 4
- Number of metabolites detected ([5]; human liver S9): 11
- Percentage of the total peak area, Liver S9 with cofactors, Hamster [5, 20]: 79.9%
- Percentage of the total peak area, Liver S9 with cofactors, Human [5, 20]: 58.2%
- Percentage of the total peak area, Liver S9 with cofactors, Rat [5, 20]: 90.3%
- Percentage of the total peak area, Liver S9 without cofactors, Hamster [5, 20]: 100.0%
- Percentage of the total peak area, Liver S9 without cofactors, Human [5, 20]: 100.0%
- Percentage of the total peak area, Liver S9 without cofactors, Rat [5, 20]: 100.0%
- Number of metabolites detected (human hepatocytes [6]): 9
- Percentage of the total peak area, Hepatocytes, Human (human hepatocytes [6]; [19]): 8.9%
- microsomal CLint at 1 µM ([10]; pooled liver S9, pH 7.4): 15.9 µL/min/mg
- half-life at 1 µM [10, 16]: ≥ 29 min
- Number of metabolites detected (hamster hepatocytes [11]): 4
- Percentage of the total peak area, Hepatocytes, Hamster (hamster hepatocytes [11]; [19]): 97.5%
- half-life at 1 µM [12, 17]: 32 min
- microsomal CLint at 1 µM [12, 17]: 14.6 µL/min/mg
- half-life at 1 µM [12, 18]: 29 min
- microsomal CLint at 1 µM [12, 18]: 16.2 µL/min/mg

Structure (SMILES): Cc1ncc2n1-c1ccc(Cl)cc1C(c1ccccc1F)=NC2 [midazolam, Midazolam, reference compound]
- half-life at 1 µM ([10]; s9, pH 7.4): < 6.3 min
- microsomal CLint at 1 µM ([10]; s9, pH 7.4): > 75 µL/min/mg
- half-life at 1 µM [12, 21]: 11.8 min
- microsomal CLint at 1 µM [12, 21]: 39.1 µL/min/mg
- half-life at 1 µM ([12]; Syrian, hamster, s9, pH 7.4): < 6.3 min
- microsomal CLint at 1 µM ([12]; Syrian, hamster, s9, pH 7.4): > 75 µL/min/mg
